Results reported in PubChem BioAssay AID1117319 (Southern Research Institute, 2015).
Inconclusive results are not listed.

The compounds below were run against Virion infectivity factor (Human immunodeficiency virus type 1 group M subtype B (isolate BH10)) + Virion infectivity factor (Human immunodeficiency virus type 1 group M subtype B (isolate BRU/LAI)) + Virion infectivity factor (Human immunodeficiency virus type 1 group M subtype B (isolate PCV12)) + Virion infectivity factor (Human immunodeficiency virus type 1 group M subtype B (isolate HXB2)) + DNA dC->dU-editing enzyme APOBEC-3G (Homo sapiens) (UniProt P69720+P69721+P69722+P69723+Q9HC16) (assay: inhibitors of Vif binding to APOBEC3G peptide, primary screen, biochemical, TR-FRET, GST-Vif 1-94, biotin-A3G peptide, dose response retest (AID 1117319);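 also: Vif residues 1-94 fused to GST binding biotinylated APOBEC3G peptide 110-148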).

Row | Structure (SMILES) | IC50 [µM]
1 | O=C1C2CCCN2C(c2cccs2)N1c1ccccn1 (stereo not drawn) | 82
2 | O=C(Cc1csc(N2CCOCC2)n1)N/N=C/c1ccc(O)c(O)c1O | 1.3
3 | COc1ccc2c(c1)n([O-])c1c([n+]2=O)CCC1 | 5.16
4 | O=[N+]([O-])c1ccc(/C=N/Nc2nc(N3CCCC3)nc(N3CCCC3)n2)o1 | 54.2
5 | Cc1oc(/N=C/c2cccc3ccccc23)c(C#N)c1C | 52.7
6 | Cc1ccc(N(CN2C(=O)C3CC=CCC3C2=O)C(=O)c2ccco2)cc1Cl (stereo not drawn) | 53.4
7 | Cc1onc(-c2ccccc2Cl)c1C(=O)NCc1ccco1 | 1.08
8 | O=C(c1ccc(=O)oc1)N1CCCc2ccccc21 | 38.3
9 | COc1ccc(-c2cc(-c3ccco3)[nH]c(=O)c2C#N)cc1 | 25.3
10 | Cc1cc(O)c(Oc2cc(C)cc(O)c2O)c(O)c1 | 13.8
11 | CC(=O)c1ccc(NC(=O)c2ccc3nc(-c4ccco4)c(-c4ccco4)nc3c2)cc1 | 1.38
12 | COc1ccc2cc(C3C(C#N)=C(N)OC(C)=C3C(C)=O)c(Cl)nc2c1 (stereo not drawn) | 19.4
13 | O=CN/C=C/c1cc(O)ccc1O | 1.72
14 | CCCn1cnc2cc(NCc3ccccn3)ccc21 | 28.6
15 | O=[N+]([O-])c1c(NCCO)cc(Sc2nc3ccccc3s2)c2nonc12 | 34.9
16 | Cc1ccccc1-c1nc(CN2CCC(C(=O)N3CCN(c4ccccn4)CC3)CC2)c(C)o1 | 43.3
17 | O=C1NC(=S)SC1=C1CCCC1 | 6.2
18 | O=c1[nH]nc(CNc2ccc(O)cc2)c2ccccc12 | 3.45
19 | Cc1cc(/C=C2\SC(=S)NC2=O)c(C)n1-c1ccccc1 | 14.1
20 | CN1CCc2c(sc3c2c(NCc2ccco2)nc2nnnn23)C1 | 16.2
21 | Cc1nc2nc(C)c(CCC(=O)N3CCN(c4ccccc4)CC3)c(C)n2n1 | 59.5
22 | Cc1ccc(Nc2nc(C(=O)NCc3ccco3)cs2)cc1 | 78.2
23 | COC/C=C/C1=CC2=CC(=O)C(C)(OC(=O)C3CCCC3)C(=O)C2=CO1 (stereo not drawn) | 2.75

Row | Structure (SMILES) | IC50 [µM]
24 | NNc1ccc([N+](=O)[O-])c2[nH][nH]c(=O)c12 | 1.93
25 | O=C1NC(=O)N(Cc2ccccc2)C(=O)/C1=C\C=C\c1ccco1 | 4
26 | CCn1cc(CNC(=O)c2ccc(Cl)c([N+](=O)[O-])c2)c(C)n1 | 15.7
27 | O=C(/C(=N/N=C/c1ccc(O)c(O)c1O)c1ccccc1)c1ccccc1 | 3.15
28 | Cc1ccc(-c2nc3s/c(=C\c4ccco4)c(=O)n3n2)cc1 | 27.6
29 | O=C(Nc1ccc(F)cc1)C(c1ccccc1)N1CCN(S(=O)(=O)c2ccc3ccccc3c2)CC1 (stereo not drawn) | 13.5
30 | CN(CC(=O)Nc1cccc(F)c1)C(=O)c1cc(-c2ccco2)nc2ccccc12 | 4.8
31 | CCc1ccc2nc(N3CCN(C)CC3)c(C#N)cc2c1 | 33.8
32 | O=C(O)c1cccc(-n2cccc2/C=C/[N+](=O)[O-])c1 | 5.49
33 | O=C1N=C(N2CCOCC2)SC1=Cc1ccco1 | 92.5
34 | COC1=C(Br)C(=O)c2nc(C)ccc2C1=O | 13.6
35 | Cc1nc2cc(-c3ccsc3-n3c(C)ccc3C)[nH]n2c(=O)c1Cl | 2.92
36 | C=CC(=O)N1C/C(=C/c2ccc(F)cc2)C(=O)/C(=C\c2ccc(F)cc2)C1 | 7.41
37 | Cn1cnnc1SCC(=O)Nc1ncc([N+](=O)[O-])s1 | 36.1
38 | COc1cc(C(=O)NCC(c2ccco2)N2CCCC2)ccc1OCc1c(C)noc1C (stereo not drawn) | 99.2
39 | COc1ccc(CN2C(=O)NC(=O)/C(=C/c3ccc([N+](=O)[O-])s3)C2=O)cc1 | 14.5
40 | O=S(=O)(O)c1cc(Cl)cc(N=Nc2ccc(O)cc2O)c1O | 49.4
41 | CCOc1ccc(C(=O)NC(=S)Nc2ccc(N3CCC(C)CC3)cc2)cc1[N+](=O)[O-] | 55.4
42 | Cc1[nH]c2ccccc2c1C(=O)Cn1c(=O)oc2ccccc21 | 96.2
43 | CC1Cc2ccccc2N1Cc1cc(=O)n2ccsc2n1 (stereo not drawn) | 7.03
44 | Nc1c(C(=O)NC2CC2)sc2nc3c(c(-c4ccco4)c12)CC/C3=C/c1ccco1 | < 0.195
45 | Cc1ccc(N2C(=O)NC(=O)/C(=C\C=C\c3ccco3)C2=O)cc1 | 8.48
46 | COc1ccc(-c2cc(C(=O)N/N=C/c3ccc(OC)c(COCC(F)(F)C(F)F)c3)c3ccccc3n2)c(OC)c1 | 26.2

Row | Structure (SMILES) | IC50 [µM]
47 | CC1=CC2(O)OCCN(CCO)C2=CC1=O (stereo not drawn) | 7.05
48 | O=C(CSc1nc2cc([N+](=O)[O-])ccc2n1-c1ccccc1)NCc1ccc2c(c1)OCO2 | 46.6
49 | O=C(O)C1Nc2ccc(Br)cc2C2C=CCC12 (stereo not drawn) | 1.56
50 | Cc1cccc(-n2nc3c(c2NC(=O)c2ccc(Br)o2)CSC3)c1 | 63.6
51 | O=C1C(Cl)=C(Oc2ccccc2)C(=O)c2ccccc21 | 23.6
52 | Cc1cc(SCC(=O)N/N=C/c2ccc(O)c(O)c2O)c(C)cc1Br | 13.3
53 | Cc1ccc(C(=O)N/N=C\c2cc(Br)c(Br)o2)cn1 | 6.24
54 | CN1C(=O)/C(=C/c2ccco2)SC1=Nc1cccc(C(=O)O)c1 | 19
55 | O=C(NCCCO)c1ccc2nc(-c3ccco3)c(-c3ccco3)nc2c1 | 0.72
56 | COc1cc2c3c(c1OC)C1(C=CC(=O)C=C1)CC3N(C(=O)CCC(=O)O)CC2 (stereo not drawn) | 13.3
57 | CSc1ccc(/C=N/Nc2cccc(C(=O)O)c2)cc1 | 11.2
58 | C=C(c1ccc(OCCO)cc1)c1ccc(OCCO)cc1 | 56.6
59 | CC1=C(SCc2ccccc2)C(=O)c2ccccc2C1=O | 58.1
60 | CCc1cc2cc(C)cc(C)c2nc1SCC(=O)N1CCN(C(=O)c2ccco2)CC1 | 12.6
61 | Cn1cccc1/C=C1\C(=O)NC(=O)N(Cc2ccccc2)C1=O | 11.2
62 | COc1ccc(-c2nc3ccccc3n2OC(=O)N(C)C)cc1 | 42.9
63 | Cc1cc(C(=O)Nc2sc3c(c2C#N)CCCCC3)cs1 | 95.9
64 | O=C1CCCC(O)=C1C=Nc1ccc(O)cc1 | 35.4
65 | Cc1cccc(C)c1NS(=O)(=O)c1c(C)[nH]c(=O)[nH]c1=O | 85.4
66 | Cc1cc(O)c(-c2cc(O)c(C)cc2O)cc1O | 8.44
67 | CC(C)NC[C@@H](O)c1ccc(O)c(O)c1 | 4.93
68 | CCCCn1c(SCC(=O)NCc2ccco2)nc2ccc(N3CCOCC3)cc2c1=O | 12.5
69 | CN=c1scc(-c2cccs2)n1/N=C/c1ccc(O)c(O)c1O | 1.95

Row | Structure (SMILES) | IC50 [µM]
70 | Nc1ccc(S(=O)(=O)c2cc(O)c3ccccc3c2O)cc1 | 24.8
71 | COc1cc(C2Nc3cccc4cccc(c34)N2)cc(OC)c1O | < 4.18
72 | CC(C)C(=O)Nc1nnc(Sc2ccc(N(C)C)cc2)s1 | 54.8
73 | CCOC(=O)C1CCCN(c2ncnc3c2cnn3-c2ccc(Cl)cc2)C1 (stereo not drawn) | 36
74 | CC1Cc2ccccc2N1Cc1nc2cc(C(F)(F)F)ccc2c(=O)[nH]1 (stereo not drawn) | 74.5
75 | Cc1cccc2c1c1ccc3c(c1n2C)C(=O)C=CC3=O | 7.63
76 | CCn1c2ccccc2c2cc(NC(=O)c3ccccc3[N+](=O)[O-])ccc21 | 14.7
77 | COc1cccc(-c2cn3nc4c(nc3n2)CCCC4)c1 | 17.6
78 | CCc1cc(=O)oc2cc(C)c(CN3CCCC3)c(O)c12 | 4.07
79 | CCCCC1=CC2=CC(=O)C(C)(OC(=O)C3CCCC3)C(=O)C2=CO1 (stereo not drawn) | 15.2
80 | O=C(O)c1cc(Nc2cc(Cl)c3nonc3c2[N+](=O)[O-])ccc1O | 57.6
81 | Cc1[nH]c2ccccc2c1C1=CC(=O)C=CC1=O | 4.25
82 | Cn1nnnc1SCC(=O)NCc1ccco1 | 42.8
83 | Cc1ccccc1NS(=O)(=O)c1ccc2[nH]cc(C(=O)N(C)Cc3ccco3)c(=O)c2c1 | 56.8
84 | Cc1cc(Cl)cc2c1NC(=O)[C@]21[C@@H]2C(=O)N(Cc3ccccc3)C(=O)[C@@H]2[C@@H]2CCCN21 | 38
85 | COCCn1nnnc1C(c1cc2cc(OC)c(OC)cc2[nH]c1=O)N1CCN(c2ccc(O)cc2)CC1 (stereo not drawn) | 4.8
86 | O=C1C(Cl)=C(N2CCCCC2)C(=O)C(Cl)=C1c1cnc(N2CCCCC2)s1 | 4.21
87 | COc1ccc(CCNC(=O)c2ccc3nc(-c4ccco4)c(-c4ccco4)nc3c2)cc1OC | 0.45
88 | Cc1ccc(OCCSc2nnc(-c3ccncc3)n2C)cc1 | 75.9
89 | O=C(Nc1ccn(-c2ccccc2)n1)c1ccccc1Br | 10.6
90 | N#Cc1c(NC(=O)CSc2ncnc3sccc23)oc(-c2ccco2)c1-c1ccco1 | 0.95
91 | COC(=O)CCC(=O)OC1(C)C(=O)C2=COC(c3ccc(OC)cc3)=CC2=C(Br)C1=O (stereo not drawn) | 13.7
92 | COc1ccc(NC(=O)CCCSc2ccccc2)cc1 | 47.3

Row | Structure (SMILES) | IC50 [µM]
93 | Cc1c(Cl)cccc1NS(=O)(=O)c1ccc2c(c1)C1C=CCC1C(c1ccc(C(=O)O)cc1)N2 (stereo not drawn) | 2.54
94 | Cc1cc(SCC2=NNC(=O)C2)c(Cl)cc1Cl | 63.2
95 | COc1ccc(-c2nc3oc4cc(OC)ccc4c(=O)c3c(=O)n2Cc2ccco2)cc1 | 98.7
96 | CCOC(=O)C1CCCN(C(=O)c2cc(-c3ccco3)nc3ccccc23)C1 (stereo not drawn) | 2.64
97 | O=C1C=C(Nc2cccc3cccnc23)c2ccccc2C1=O | 22.8
98 | COc1cc(CNCCc2ccc(F)cc2)ccc1OCc1ccc(Cl)nc1 | 3.18
99 | NN=C1C(Cl)=C(Cl)C(Cl)=C1Cl | 10.6
100 | CCN(CC)c1ccc(N=Cc2c(O)n(-c3ccc(Cl)cc3)c(=O)[nH]c2=O)cc1 | 37.6
101 | COC(=O)Cn1c(CCC(=O)O)ccc1-c1ccccc1 | 12.5
102 | CNc1ccc(Br)cc(C(=O)/C=C/c2cccc(OC)c2OC)c1=O | 4.1
103 | O=C(Nc1ccc2nc(-c3ccco3)c(-c3ccco3)nc2c1)NC1CC1 | 0.3
104 | COc1ccc2ccccc2c1C1CC(=O)N2CN(Cc3ccco3)CSC2=C1C#N (stereo not drawn) | 53.6
105 | Cc1cc(/C=N/Nc2ccc([N+](=O)[O-])cn2)c(C)n1-c1ccc(C(=O)O)cc1 | 3.25
106 | Cc1cc(/C=C2\SC(=S)NC2=O)c(C)n1C | 36.2
107 | Cc1ncc(CO)c(/C=N/NC(=O)c2cc(O)c(O)c(O)c2)c1O | 2.45
108 | COCCNC(=O)Nc1ccc2nc(-c3ccco3)c(-c3ccco3)nc2c1 | 0.25
109 | CC(=O)NN1C(=O)/C(=C\c2ccc(Br)o2)SC1=S | 5.73
110 | CC1CCC/C(=C\Nc2ccc(O)cc2)C1=O (stereo not drawn) | 17.2
111 | O=c1cc(OCc2ccccc2)cc[nH]1 | 3.1
112 | COc1cc(-c2ccc(Nc3ccccc3C(=O)O)c(OC)c2)ccc1Nc1ccccc1C(=O)O | 0.94
113 | Cn1cnnc1SC/C(O)=C(\C#N)c1nc2ccccc2[nH]1 | 19.7
